From patent US9776972B2, “Pyrazole derivatives as arginine methyltransferase inhibitors and uses thereof” (priority 2013, dated 2017) come the findings set out here.

One assay deals with human PRMT8 (Homo sapiens, UniProt Q9NR22). Briefly: PRMT8 Biochemical Assay (3H-SAM Flashplate, peptide substrate). Particulars: single experiment or average of multiple experiments. In a few lines:
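Methylation of a biotin-tagged histone H4 peptide (residues 31-45) by recombinant PRMT8 was measured as 3H transfer from 3H-SAM, after a 30 min room-temperature compound preincubation in Bicine buffer pH 7.6. Reactions were quenched with unlabelled SAM to 400 uM final, then bound counts were read by streptavidin Flashplate. IC50 came from a Hill fit of % inhibition relative to max and SAH min controls.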

For assay [1], the system named is mono-methyl arginine in RKO cells. Description: RKO Methylation Assay, In Cell Western (ICW) for mono-methyl arginine and DNA content. As to conditions: for EC30 (In Cell Western data): class symbols; for EC30: Homo sapiens, RKO, 72 h. In kind it is cell-based. In a few lines:
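After fixation, mono-methyl arginine and DNA (DRAQ5) were measured by infrared In-Cell Western imaging at 700/800 nm in RKO cells exposed to compounds for 72 hours. Percent activation used DMSO wells as minimum and 20 μM reference compound as maximum; EC30 curves fitted on triplicate wells.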

Setting [2] is: RKO cells, 72 hours, mono-methyl arginine, percent activation.
[3] abbreviates: RKO cells, 72 hours, mono-methyl arginine, percent activation, single experiment or average of multiple experiments, read-out: EC30 (In Cell Western data, Numerical).
Setting [4] is: read-out: EC30 (In Cell Western data, Numerical, μM).

Like-named read-outs stand apart in the source and are kept apart here. Bounds are passed on as bounds.

Sequence of human PRMT8 (Q9NR22 whole entry, the tested form may be a part): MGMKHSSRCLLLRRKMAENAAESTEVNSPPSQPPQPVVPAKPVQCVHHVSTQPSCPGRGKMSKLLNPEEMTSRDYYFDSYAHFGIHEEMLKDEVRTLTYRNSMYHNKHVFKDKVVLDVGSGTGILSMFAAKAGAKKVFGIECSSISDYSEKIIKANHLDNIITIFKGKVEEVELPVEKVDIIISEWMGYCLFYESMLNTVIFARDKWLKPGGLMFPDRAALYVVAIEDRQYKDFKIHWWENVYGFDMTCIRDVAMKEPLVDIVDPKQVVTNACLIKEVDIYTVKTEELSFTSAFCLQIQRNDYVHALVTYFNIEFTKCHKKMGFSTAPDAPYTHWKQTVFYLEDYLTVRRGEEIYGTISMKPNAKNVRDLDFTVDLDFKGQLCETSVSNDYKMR

In general, IC50 refers to the concentration that gives 50% inhibition. Lower therefore signals greater potency. With `CNCCN(C)Cc1c[nH]nc1-c1c(OC)cccc1OC` [Compound 56], the 50% inhibitory concentration (IC50) against human PRMT8 came out at 34900 nM. Besides, in assay [1] (setting [2]), the “EC30 (In Cell Western data)” value is on record as “C (“C” indicates an EC30 ≧ 12.01 μM)”.

One may read the EC30 as the concentration at which the effect reaches the 30% level. In the case of `CNCCN(C)Cc1c[nH]nc1-c1ccc(CO)cc1` [Compound 28], on human PRMT8, the IC50 was determined as 95.5 nM. Moreover, the EC30 in assay [1] (setting [3]) worked out at 10.2 µM.

As for `CNCCN(C)Cc1c[nH]nc1-c1ccccc1C(F)(F)F` [Compound 38], the half-inhibitory concentration (IC50) against human PRMT8 was 9900 nM. For the same compound, the “EC30 (In Cell Western data)” value in assay [1] (setting [2]) is “C (“C” indicates an EC30 ≧ 12.01 μM)”.

On to `CNCCN(C)Cc1cnn(CC(=O)OC)c1-c1ccc(OC(C)C)cc1` [Compound 249], for which half-maximal inhibition at human PRMT8 (IC50) required 1500 nM. Further, the concentration for an effect of 30% (EC30) in assay [1] (setting [4]) was 9.53 µM.

`CNCCN(C)Cc1c[nH]nc1-c1ccc(Oc2ccccc2)cc1` [Compound 37] displayed a 50% inhibitory concentration (IC50) at human PRMT8 of 57.6 nM. The EC30 in assay [1] (setting [3]) worked out at 0.05 µM.

`CNCCN(C)Cc1c[nH]nc1-c1ccc(F)cc1` [Compound 2, N^1-((3-(4-fluorophenyl)-1H-pyrazol-4-yl)methyl)-N^1,N^2-dimethylethane-1,2-diamine] registered a 50% inhibitory concentration (IC50) against human PRMT8 of 507 nM. Further, in assay [1] (setting [4]), the 30% effect concentration (EC30) is 1.12 µM.

Compound `CCCN(CCN)Cc1c[nH]nc1-c1ccc(F)cc1` [Compound 63] gave an IC50 at human PRMT8 of 8030 nM. The concentration for an effect of 30% (EC30) in assay [1] (setting [3]) is above 20 µM.

In the case of `CNCCN(C)Cc1cn(CC(=O)O)nc1-c1ccc(OC(C)C)cc1` [Compound 250], 2540 nM corresponded to half-maximal inhibition at human PRMT8 (IC50). In addition, the concentration for an effect of 30% (EC30) in assay [1] (setting [4]) was above 20 µM.

`CNCCN(C)Cc1c[nH]nc1-c1ccccc1-c1ccccc1` [Compound 46]: the IC50 at human PRMT8 worked out at 11900 nM. Besides, the “EC30 (In Cell Western data)” value in assay [1] (setting [2]) is “C (“C” indicates an EC30 ≧ 12.01 μM)”.

In turn, `CN(CCN)Cc1c[nH]nc1-c1ccc(C#N)cc1` [Compound 68] yielded an IC50 on human PRMT8 of 404 nM. In assay [1] (setting [3]), the EC30 is 0.775 µM.

Regarding `CNCCN(C)Cc1c[nH]nc1-c1ccc(O)cc1` [Compound 27], at human PRMT8, the midpoint of inhibition, the IC50, lay at 712 nM. Moreover, the EC30 in assay [1] (setting [3]) stood at 12.3 µM.

In the case of `CCCc1ccc(-c2n[nH]cc2CN(C)CCNC)cc1` [Compound 20], half-maximal inhibition on human PRMT8 (IC50) was put at 57.7 nM. The EC30 in assay [1] (setting [3]) is 0.18 µM.
